Among the test systems are BT-549 breast; HCT-15 colon; HL-60(TB) leukemia; HS 578T breast; HT29 colon; LOX IMVI melanoma; SR leukemia; SW-620 colon; T-47D breast; UACC-257 melanoma.
Common to all, as to experiment: DTP human tumour cell line panel, 48 h

Structures are written as SMILES.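 Cells were grown in 96-well plates and exposed to each compound for 48 hours at five concentrations; endpoints were interpolated linearly between bracketing concentrations, or set to the highest concentration if not reached. Here, GI50 denotes the concentration required for 50% inhibition of growth. TGI: concentration producing complete growth inhibition.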

With `O=C(Nc1ccc(F)cc1)c1c(NC(=O)C(F)(F)F)sc2c1CCCCC2`, the GI50 in the assay with BT-549 breast is 2.08 µM; in the assay on HCT-15 colon, 2.59 µM; with HL-60(TB) leukemia it was 2.68 µM; with HS 578T breast it was 0.633 µM; in the assay on HT29 colon it was 2.48 µM; in the assay on LOX IMVI melanoma it was 2.43 µM. The GI50 in the assay on SR leukemia is 1.29 µM; in the assay on SW-620 colon, 2.51 µM; in the assay on T-47D breast it was 1.62 µM; in the assay with UACC-257 melanoma it was 2.21 µM. The TGI came to 6.85 µM with BT-549 breast; 10.8 µM in the assay on HCT-15 colon; 8.32 µM in the assay with HL-60(TB) leukemia; 4.57 µM in the assay with HS 578T breast; 13.5 µM in the assay on HT29 colon; 13.2 µM with LOX IMVI melanoma. Further, the concentration for total growth inhibition (TGI) is greater than 100 µM with SR leukemia, 11.9 µM in the assay with SW-620 colon, 5.61 µM in the assay on T-47D breast and 7.17 µM with UACC-257 melanoma.
In the case of `CC1=C[C@H]2c3c(c(O)c(O)c4oc5ccccc5c(=O)c34)[C@H](c3cc(O)c(O)c4oc5ccccc5c(=O)c34)[C@H]2C(C)(C)C1`, the GI50 in the assay with BT-549 breast is 1.92 µM; with HCT-15 colon, 0.909 µM; with HL-60(TB) leukemia, 3.22 µM; in the assay with HS 578T breast, 0.379 µM; in the assay with HT29 colon, 0.86 µM; in the assay with LOX IMVI melanoma, 0.451 µM. Besides, the 50% growth inhibitory concentration (GI50) in the assay on SR leukemia is 0.384 µM; with SW-620 colon, 0.802 µM; in the assay with T-47D breast, 0.764 µM; with UACC-257 melanoma it was 2.65 µM. Besides, the concentration for total growth inhibition (TGI) stood at 6.69 µM in the assay with BT-549 breast; 12.9 µM in the assay on HCT-15 colon; 10.8 µM with HL-60(TB) leukemia; 9.89 µM with HS 578T breast; 13.8 µM in the assay with HT29 colon; 1.76 µM in the assay with LOX IMVI melanoma. The TGI turned out to be 34.4 µM in the assay with SR leukemia, 10.7 µM in the assay on SW-620 colon, 19.3 µM in the assay with T-47D breast and 18.1 µM in the assay with UACC-257 melanoma.
As to `COC(=O)c1c2c(c(C)[n+]([O-])c1C)C(=O)C=C(NCc1ccc(F)c(F)c1)C2=O`, the GI50 in the assay on BT-549 breast is 1.12 µM; in the assay on HCT-15 colon, 0.235 µM; in the assay on HL-60(TB) leukemia, 0.302 µM; in the assay with HS 578T breast, 1.89 µM; with HT29 colon, 0.304 µM; in the assay on LOX IMVI melanoma it was 0.0825 µM. Besides, the concentration for 50% growth inhibition (GI50) in the assay with SR leukemia is 0.373 µM; with SW-620 colon it was 0.254 µM; with T-47D breast it was 0.127 µM; in the assay with UACC-257 melanoma, 0.225 µM. For the same compound, the TGI with BT-549 breast turned out to be 2.42 µM; in the assay on HCT-15 colon it was 1.44 µM; in the assay with HL-60(TB) leukemia, 1.02 µM; in the assay on HS 578T breast it was 6.17 µM; in the assay on HT29 colon, 3.17 µM; in the assay on LOX IMVI melanoma, 1.39 µM. Also, the TGI in the assay with SR leukemia came to 4.06 µM; with SW-620 colon, 1.36 µM; in the assay on T-47D breast it was 1.02 µM; in the assay with UACC-257 melanoma it was 0.657 µM.
Regarding `O=C(NCCCNc1cc(-c2cn(-c3ccccc3)nc2-c2cccc(O)c2)ccn1)c1ccccc1`, the GI50 with BT-549 breast was 2.72 µM; with HCT-15 colon it was 1.51 µM; with HL-60(TB) leukemia, 1.68 µM; in the assay with HS 578T breast it was 3.06 µM; in the assay with HT29 colon, 1.71 µM; with LOX IMVI melanoma, 2.25 µM. The GI50 in the assay with SR leukemia is 1.68 µM; with SW-620 colon, 2.36 µM; in the assay on T-47D breast, 1.57 µM; in the assay with UACC-257 melanoma, 2.07 µM. Besides, the TGI in the assay with BT-549 breast was found to be 9.47 µM; in the assay on HCT-15 colon, 5.12 µM; in the assay with HL-60(TB) leukemia, 4.19 µM; in the assay with HS 578T breast it was 48.3 µM; in the assay with HT29 colon it was 5.23 µM; in the assay with LOX IMVI melanoma, 6.36 µM. For the same compound, the total growth inhibition concentration (TGI) was 5.35 µM in the assay on SR leukemia, 6.15 µM in the assay on SW-620 colon, 6.89 µM in the assay with T-47D breast and 4.4 µM in the assay on UACC-257 melanoma.
Turning to `COc1ccc(/C=C/c2nc(NCCCN(C)C)c3ccccc3n2)cc1`, the GI50 was 1.55 µM with BT-549 breast; 16.3 µM in the assay on HCT-15 colon; 1.71 µM in the assay on HL-60(TB) leukemia; 3.22 µM in the assay on HS 578T breast; 1.61 µM with HT29 colon; 1.83 µM in the assay with LOX IMVI melanoma. Further, the GI50 with SR leukemia was 1.86 µM; with SW-620 colon, 1.67 µM; with T-47D breast, 1.81 µM; with UACC-257 melanoma it was 1.87 µM. Moreover, the concentration for total growth inhibition (TGI) in the assay with BT-549 breast is 5.01 µM; in the assay with HCT-15 colon, 30.8 µM; in the assay on HL-60(TB) leukemia, 3.86 µM; with HS 578T breast it was 11 µM; in the assay on HT29 colon, 3.13 µM; in the assay on LOX IMVI melanoma, 3.42 µM. In addition, the total growth inhibition concentration (TGI) in the assay on SR leukemia is 4.2 µM; with SW-620 colon, 3.49 µM; in the assay on T-47D breast, 3.61 µM; in the assay on UACC-257 melanoma it was 3.65 µM.
For the compound `N=C(N=C(N)N)N1CCN(c2ccncc2)CC1`, the GI50 was greater than 1000 µM in the assay on BT-549 breast; greater than 1000 µM in the assay on HCT-15 colon; greater than 1000 µM in the assay on HL-60(TB) leukemia; 913 µM in the assay with HS 578T breast; greater than 1000 µM with HT29 colon; greater than 1000 µM in the assay with LOX IMVI melanoma. Further, the GI50 in the assay with SR leukemia, in the assay with SW-620 colon, in the assay on T-47D breast and in the assay with UACC-257 melanoma was greater than 1000 µM in each case. The TGI in the assay on BT-549 breast, in the assay on HCT-15 colon, in the assay on HL-60(TB) leukemia, with HS 578T breast, with HT29 colon and in the assay on LOX IMVI melanoma was greater than 1000 µM throughout. Further, the TGI with SR leukemia, in the assay with SW-620 colon, with T-47D breast and in the assay on UACC-257 melanoma was greater than 1000 µM throughout.
`CCCCCCCCCCN(CCCCCCCCCC)CC(=O)c1ccc2cc(Br)c3ccccc3c2c1`: the GI50 in the assay on BT-549 breast was 10.9 µM; with HCT-15 colon, 1.52 µM; in the assay with HL-60(TB) leukemia, 2.01 µM; in the assay with HS 578T breast, 3.59 µM; in the assay on HT29 colon, 1.32 µM; with LOX IMVI melanoma it was 1.75 µM. Besides, the GI50 in the assay on SR leukemia was 1.3 µM; in the assay on SW-620 colon, 1.87 µM; in the assay with T-47D breast it was 2.44 µM; with UACC-257 melanoma it was 2.11 µM. Also, the TGI is 23.6 µM in the assay with BT-549 breast; 3.34 µM with HCT-15 colon; 4.22 µM in the assay on HL-60(TB) leukemia; 21.7 µM in the assay on HS 578T breast; 2.77 µM in the assay with HT29 colon; 3.32 µM in the assay with LOX IMVI melanoma. The TGI in the assay on SR leukemia amounted to 4.19 µM; in the assay on SW-620 colon it was 3.75 µM; in the assay with T-47D breast, 5.98 µM; in the assay on UACC-257 melanoma, 4.4 µM.

A word on the GI50: it is the concentration at which growth is held to half of that of the control. A word on the TGI: it is the concentration giving total growth inhibition. Read a low TGI as more potent growth arrest.

For the origin of these results see PubChem BioAssay (NCI).
